In patent publication US20260256144A1, “FUNGICIDAL MIXTURE COMPOSITION COMPRISING SULPHUR” (ADAMA MAKHTESHIM LTD., priority 2022, published 2026):

How the values were obtained:
[1] = system: Ramularia collo-cygni; assay: Activity against Ramularia collo-cygni in plates; type: cell-based
Description: (§1) Colby's method is used to determine if synergy exists for a combination of active ingredients. According to Colby, the expected action (E) of active ingredients A+B is: [formula] • where E=expected efficacy, A and B=the efficacy of two active ingredients A and B at a given dose. When the percentage of control observed (O) for the combination is greater than the expected (E) percentage, there is a synergistic effect. The synergism ratio (R) is calculated as the ratio between the expected values and observed values. […] The compositions were diluted with water. Each formulation with active ingredient is diluted with water and biological efficacy trials on target fungi are conducted.

[2] = system: Colletotrichum gloeosporioides; assay: Activity against Colletotrichum gloeosporioides in plates; type: cell-based
Description: as §1

[3] = system: Botrytis cinerea; assay: Activity against Botrytis cinerea in plates; type: cell-based
Description: as §1

[4] = system: Zymoseptoria tritici; assay: Wheat yield increase when applied for Zymoseptoria tritici control; type: in vivo
Description: (§2) The experiments were conducted by applying commercially available formulations of Sulphur and other mixture partners, alone or with their tank-mixed compositions. The compositions were diluted with water.
(§3) Each formulation with active ingredient is diluted with water and biological efficacy trials on target fungi are conducted.

[5] = system: Venturia inaequalis; assay: Sulphur + Difenoconazole on apple fruits incidence for Venturia inaequalis control; type: in vivo; details: 4 days after last application
Description: as §1

[6] = system: Alternaria solani; assay: Activity against Alternaria solani in plates; type: cell-based
Description: as §1

[7] = system: Venturia inaequalis; assay: Apple fruits classes of damage for Venturia inaequalis control; type: in vivo; details: 14 days after last application; for Class 1 (%): class 1 = no damage; for Class 2 (%): class 2 = 2-3 spots per fruit; for Class 3 (%): class 3 = more than 3 spots per fruit
Description: The fungicidal compounds A (sulphur) and B (mix partner) are formulated as equivalent compositions to eliminate the effects of differing formulation inerts on biological activity. Efficacy of the fungicidal compositions is evaluated with reference to a scale of 0% to 100% in comparison with untreated control plots. 0 means no control and 100 means complete control of the target disease.
as §2, §3

[8] = system: Tetranychus urticae; assay: Activity of Sulphur + Fluazinam against Tetranychus urticae in plates; type: in vivo
Description: (§4) Colby's method is used to determine if synergy exists for a combination of active ingredients. According to Colby, the expected action (E) of active ingredients A+B is:
(§5) [formula] • where E=expected efficacy, A and B=the efficacy of two active ingredients A and B at a given dose.
(§6) When the percentage of control observed (O) for the combination is greater than the expected (E) percentage, there is a synergistic effect. The synergism ratio (R) is calculated as the ratio between the expected values and observed values.
(§7) Furthermore, the miticidal and insecticidal efficacy of the compositions are also evaluated with reference to a scale of 0% to 100% in comparison with untreated control plots. 0 means no control and 100 means complete control of the target pest.
as §2
(§8) Each formulation with active ingredient is diluted with water and biological efficacy trials on target pest are conducted.

[9] = system: Trialeurodes vaporariorum; assay: Activity of Sulphur + Fluazinam against Trialeurodes vaporariorum plates; type: in vivo
Description: as §4, §5, §6, §7, §2, §8

Q: With `CC1COC(Cn2cncn2)(c2ccc(Oc3ccc(Cl)cc3)cc2Cl)O1` (centres unmarked) [Difenoconazole] as the molecule, how does the “Observed % control (O)” value ([1]; rate 25 g/ha) read?
A: Its value is 73.9%.

Q: And the “Observed % control (O)” value ([2]; rate 25 g/ha)?
A: Its value is 58.4%.

Q: What about the “Observed % control (O)” value ([3]; rate 25 g/ha) of the same molecule?
A: Its value is 62.5%.

Q: And the “Yield increase versus the untreated (%)” value ([4]; untreated = 100, rate 75 g/ha)?
A: The value was 102.26%.

Q: And the “Yield increase versus the untreated (%)” value ([4]; untreated = 100, rate 125 g/ha)?
A: The value was 109.14%.

Q: What about the “Observed % control (O)” value ([5]; rate 37.5 g/ha) of the same molecule?
A: The value was 67.90%.

Q: What about the “Observed % control (O)” value ([5]; rate 50 g/ha) of the same molecule?
A: The value was 69.40%.

Q: What about the “Observed % control (O)” value ([6]; rate 25 g/ha) of the same molecule?
A: The value was 60.6%.

Q: What about the “Class 1 (%)” value ([7]; rate 37.5 g/ha) of the same molecule?
A: The value was 92.5%.

Q: And the “Class 1 (%)” value ([7]; rate 50 g/ha)?
A: Its value is 93.5%.

Q: And the “Class 2 (%)” value ([7]; rate 37.5 g/ha)?
A: Its value is 5.2%.

Q: And the “Class 2 (%)” value ([7]; rate 50 g/ha)?
A: The value was 3.3%.

Q: And the “Class 3 (%)” value ([7]; rate 37.5 g/ha)?
A: The value was 2.3%.

Q: What about the “Class 3 (%)” value ([7]; rate 50 g/ha) of the same molecule?
A: The value was 3.3%.

Q: With Fluazinam as the molecule, how does the “Observed % control (O)” value ([8]; 200 g ai/ha) read?
A: Its value is 27.5%.

Q: What about the “Observed % control (O)” value ([8]; 250 g ai/ha) of the same molecule?
A: The value was 32.5%.

Q: What about the “Observed % control (O)” value ([8]; 300 g ai/ha) of the same molecule?
A: The value was 32.5%.

Q: And the “Observed % control (O)” value ([8]; 350 g ai/ha)?
A: The value was 37.5%.

Q: What about the “Observed % control (O)” value ([1]; rate 150 g/ha) of the same molecule?
A: Its value is 36.3%.

Q: And the “Observed % control (O)” value ([2]; rate 150 g/ha)?
A: The value was 60.8%.

Q: What about the “Observed % control (O)” value ([3]; rate 150 g/ha) of the same molecule?
A: The value was 64.4%.

Q: And the “Observed % control (O)” value ([6]; rate 150 g/ha)?
A: Its value is 57.5%.

Q: What about the “Observed % control (O)” value ([9]; 200 g ai/ha) of the same molecule?
A: Its value is 21.7%.

Q: What about the “Observed % control (O)” value ([9]; 250 g ai/ha) of the same molecule?
A: The value was 23.6%.

Q: What about the “Observed % control (O)” value ([9]; 300 g ai/ha) of the same molecule?
A: Its value is 24.1%.

Q: And the “Observed % control (O)” value ([9]; 350 g ai/ha)?
A: Its value is 33.6%.
